The conditions of data set [1]: photoreaction; cited from earlier work.
The test system of the next data set is protein kinase. To be noted: cited from earlier work.
A further data set has as its system viruses. The conditions noted are these: photoactivated; in vitro; cited from earlier work.
The next data set relates to normal PBMC. Put plainly: Lymphocyte proliferation (3H-TdR incorporation), ConA-stimulated PBMC from normal human subject. Format: cell-based. The conditions noted are these: for IC50: read-out: IC50 of ConA-induced cell proliferation; for IC100: 72 h, read-out: concentration at which proliferation was completely inhibited. An excerpt:
In two of the types of lymphocytes, the mitogen, ConA, was used to induce proliferation, as described (Fox et al., 1993, Cell. Immunol. 150:45-58). The third type of lymphocytes used in this example proliferated actively in vitro without the need for mitogenic stimulation. The three types of lymphocytes which were used in this example were: PBMC obtained from a normal human subject and stimulated with ConA; PBMC, including malignant CD4+ T-lymphocytes, obtained from a human subject having CTCL and stimulated with ConA; and PBMC obtained from a normal human subject, which PBMC were exposed to Epstein-Barr virus (EBV) after being obtained from the subject, to produce transformed lymphocytes. It is known that EBV-transformed B-lymphocytes proliferate actively in vitro (Polack, 1996, Proc. Natl. Acad. Sci. U.S.A. 93:10411-10416; Longnecker, 1994, Leukemia 8:546-550).
Peripheral blood mononuclear cells (PBMC) were obtained by separating them from whole blood, using Ficoll-Paque separation techniques and media (Boyum, 1964, Nature 793-794). After they were obtained, PBMC were resuspended in RPMI 1640 medium, which comprised 10% (v/v) fetal bovine serum (GIBCO, Grand Island, N.Y.), and were distributed into the wells of 96-well microtiter plates. PBMC transformed using EBV were made as described (Neitzel, 1986, Hum. Gen. 73:320-326)
This stock solution stored at 4° C. in the dark. A stock solution comprising 462.5 μM 8-methoxypsoralen (8-MOP) was prepared in 2% (v/v) benzyl alcohol. 8-MOP was obtained from Sigma (St. Louis, Mo.).
In cultures of transformed leukocytes in which 8-MOP was used, the concentrations of 8-MOP which were used were 92.5 μM, 18.5 μM, 3.7 μM, 0.74 μM, 0.15 μM, and 0.030 μM. Thereafter, ConA was then added to preselected wells to achieve a final concentration of 10 μg/ml of ConA in those wells.
Following preparation of the microtiter culture plates, preselected plates were illuminated with fluorescent visible light for 10-30 minutes, using four fluorescent bulbs (type F15T8CW, TFC Inc., Taiwan) spaced at a distance of 9 cm above the plates. Other preselected plates were illuminated with 0.5-2 Joules per square centimeter UV-A light using a UV-A light box containing 8 UVAR 06-91 bulbs. Still other preselected plates were not exposed to light. The covers of plates which were exposed to light were left in place during illumination.
Following illumination, plates which had been illuminated were placed into a dark incubator which was maintained at 37° C. Non-illuminated plates were placed into the incubator immediately after preparation. All plates were incubated for seventy-two hours. During the final eighteen hours of incubation, tritiated thymidine (^3 H-TdR) was added to each well of each plate. No extraordinary precautions were used to prevent light exposure during the addition of ^3 H-TdR.
Lymphocyte proliferation was assessed by measuring the extent of incorporation of ^3 H-TdR into newly synthesized DNA within the cells at the end of the seventy-two hour incubation period, as described (Fox, 1993, Cell. Immunol. 150:45-58).

The test system of another data set is leukocytes. The conditions noted are these: photoactivated; cited from earlier work.
A short description of data set [2]: Absorbance spectrum / photoactivation wavelength. The class given is physicochemical. To be noted: 20 μM hypericin in phosphate-buffered saline. An excerpt:
Absorbance maxima which were observed included maxima at 327 nm, 563 nm, and 603 nm.

In another data set the test system is leukemia cells. The conditions noted are these: cited from earlier work.
Another data set concerns enveloped virus. The conditions noted are these: hypericin photoactivated prior to treatment of virus; cited from earlier work.
For data set [3] the following is noted: cited from earlier work.
For another data set, the system named is glioma cells. The conditions noted are these: in vitro; cited from earlier work.
The test system of data set [4] is xenografted carcinoma cells. To be noted: intraperitoneal; local illumination of skin; cited from earlier work.
Another data set deals with malignant leukocytes. Put plainly: Flow cytometric sorting of apoptotic malignant leukocytes (dUTP-FITC incorporation). Format: cell-based, human. The conditions noted are these: 10 μM hypericin or 0.462 μM 8-MOP, 18 h. From the text:
FIG. 8, comprising Panels A-G, is a series of graphs which represent distributions of cell types within various cultures, as assessed by flow cytometric cell sorting, using incorporation of dUTP-FITC into fragmented DNA as a selection criterion. Malignant leukocytes which have not been induced to undergo apoptosis are represented as points which are located below an imaginary horizontal line located at approximately 2×10^1 on the vertical axis of each graph. Malignant leukocytes which have been induced to undergo apoptosis are represented as points which are located above an imaginary horizontal line located at approximately 3×10^1 on the vertical axis of each graph. […] The graph in Panel B corresponds to cells which were treated with hypericin and which were not illuminated. The graph in Panel C corresponds to cells which were treated with hypericin and which were illuminated using visible light. The graph in Panel D corresponds to cells which were treated with hypericin and which were illuminated using UV-A light. The graph in Panel E corresponds to cells which were treated with 8-MOP and which were not illuminated. The graph in Panel F corresponds to cells which were treated with 8-MOP and which were illuminated using visible light. The graph in Panel G corresponds to cells which were treated with 8-MOP and which were illuminated using UV-A light.
Hypericin-treated malignant leukocytes and 8-MOP-treated leukocytes were photoactivated using visible light for 20 minutes or 2 J/cm^2 UV-A light, or were not photoactivated, as described in Example 1. 18 hours after photoactivation, or 18 hours after preparation of the cultures which were not photoactivated, leukocyte cultures were harvested, and apoptotic cells were separated from non-apoptotic cells using a FACScan flow cytometer (Becton Dickinson Immunocytometry Systems, San Jose, Calif.). Apoptotic cells were distinguished from non-apoptotic cells based on increased dUTP-FITC incorporation.

The mark [5] stands for this setting: Homo sapiens, PBMC, 10 min, visible light, 10 min.
The mark [6] stands for this setting: Homo sapiens, PBMC, 20 min, visible light, 20 min.
[7] abbreviates: Homo sapiens, PBMC, UV-A, 0.5 J/sc.
[8] abbreviates: Homo sapiens, PBMC, UV-A, 1 J/sc.
Setting [9] is: Homo sapiens, PBMC, not illuminated, benzyl alcohol vehicle itself inhibitory at highest concentrations.

Structures are written as SMILES. Several values for one entry are separate records, joined by “and”; a condition that tells them apart may be missing. Identical values can stand only once. Like-named read-outs stand apart in the source and are kept apart here.

With `Cc1cc(O)c2c(=O)c3c(O)cc(O)c4c5c(O)cc(O)c6c(=O)c7c(O)cc(C)c8c1c2c(c34)c(c78)c65` [hypericin, 1,3,4,6,8,13-Hexahydroxy-10,11,dimethyl-phenanthro[1,10,9,8,-opqra]perylene-7,14-dione], in data set [1], the singlet oxygen production result is given as “produce singlet oxygen”. In addition, the protein kinase inhibition result with protein kinase is recorded as “inhibits protein kinase activity”. Besides, the “inactivation of viruses in blood compositions” value in the data set on viruses is given as “could be used to inactivate viruses in blood compositions in vitro”. In addition, the IC50 in the data set with normal PBMC (setting [5]) worked out at 760 nM; in the data set with normal PBMC (setting [6]), 110 nM; in the data set with normal PBMC (setting [7]), 4600 nM; with normal PBMC (setting [8]) it was 2100 nM; in the data set with normal PBMC (setting [9]), 22000 nM; with normal PBMC (not illuminated, benzyl alcohol vehicle itself inhibitory at highest concentrations) it was 23200 nM. The IC50 in the data set with normal PBMC (visible light, 10 min) is 680 nM and 800 nM; in the data set on normal PBMC (visible light, 20 min), 180 nM and 100 nM. Also, the IC100 with normal PBMC (Homo sapiens, PBMC, visible light, 10 min) came out at 3.2 µM; in the data set with normal PBMC (Homo sapiens, PBMC, visible light, 20 min), 0.64 µM. The “inhibition of mitogen-induced proliferation” value in the data set on normal PBMC (normal PBMC) is “inhibits mitogen-induced proliferation of PBMC”. Also, in the data set on normal PBMC (visible light 30 min, relative to shorter illumination), the “effect of 30 min illumination on inhibition of proliferation” value is “did not significantly increase inhibition of cell proliferation”. Besides, the effect on leukocytes result in the data set on leukocytes was “no effect of hypericin on leukocytes”. Moreover, in data set [2], the absorbance maximum is 327 nm and 563 nm and 603 nm. Also, the inhibition of proliferation result with leukemia cells is given as “incapable of inhibiting proliferation of leukemia cells”. Also, in the data set with enveloped virus, the “effect on enveloped virus” value is recorded as “reduce the infectious titer of the enveloped virus, but did not inactivate the virus”. The presence in skin entry in data set [3] (after systemic administration) is “demonstrated in skin after systemic administration”. In addition, the “presence in blood plasma” value in data set [3] (following administration to mammals) is given as “remains in the blood plasma”. In addition, the half life in data set [3] (in vivo) was 20 to 24 h. The “effect of light on antiproliferative effects” value with glioma cells is given as “only slightly enhance hypericin's antiproliferative effects on glioma cells”. Moreover, the “inhibition of proliferation of xenografted carcinoma cells” value in [4] is “inhibited proliferation of these carcinoma cells”. Also, the “induction of apoptosis (flow cytometry, FIG. 8)” value in the data set on malignant leukocytes (UV-A 2 J/cm^2) is on record as “induced apoptosis in most cells”; in the data set on malignant leukocytes (no photoactivation) it was “neither hypericin nor 8-MOP induced significant apoptosis”; in the data set with malignant leukocytes (visible light 20 min), “induced apoptosis in nearly all cells”.

Consider `COc1c2occc2cc2ccc(=O)oc12` [8-MOP, 8-methoxypsoralen], for which the IC50 is 33500 nM in the data set on normal PBMC (setting [5]); 33500 nM with normal PBMC (setting [6]); 33500 nM with normal PBMC (Homo sapiens, PBMC, 0.5 h, visible light, 30 min); 960 nM with normal PBMC (setting [7]); 170 nM in the data set on normal PBMC (setting [8]); 150 nM in the data set on normal PBMC (Homo sapiens, PBMC, UV-A, 2 J/sc). Further, the IC50 in the data set on normal PBMC (setting [9]) amounted to 33500 nM. Moreover, the “induction of apoptosis (flow cytometry, FIG. 8)” value with malignant leukocytes (UV-A 2 J/cm^2) is reported as “induced apoptosis in most cells”; in the data set with malignant leukocytes (no photoactivation), “neither hypericin nor 8-MOP induced significant apoptosis”; in the data set on malignant leukocytes (visible light 20 min) it was “induced apoptosis in only a limited number of cells”.
